# Experimental data: ChEMBL document CHEMBL3822389, “New insights into 3-(aminomethyl)naphthoquinones: Evaluation of cytotoxicity, electrochemical behavior and search for structure-activity correlation” (Bioorg Med Chem Lett, 2016)
# Assays:
# [1] = Cytotoxicity against human HCT8 cells after 72 hrs by MTT assay; assay type: functional, cell-based, HCT-8
# [2] = Cytotoxicity against human SF295 cells after 72 hrs by MTT assay; assay type: functional, cell-based, SF-295
# [3] = Cytotoxicity against human HL60 cells after 72 hrs by MTT assay; assay type: functional, cell-based, HL-60
# MDA-MB-435 = test: Cytotoxicity against human MDA-MB-435 cells after 72 hrs by MTT assay; assay type: functional, cell-based
SMILES,IC50 ([1]; hct-8),"IC50 ([2]; Homo sapiens, SF-295, 72 h)","IC50 ([3]; Homo sapiens, HL-60, 72 h)",IC50 (MDA-MB-435; mda-mb-435),"IC50 ([1]; Homo sapiens, HCT-8, 72 h)","IC50 (MDA-MB-435; Homo sapiens, MDA-MB-435, 72 h)",IC50 ([3]; hl-60),IC50 ([2]; sf-295)
O=C1C(O)=C(C(NCc2ccccc2)c2ccccc2O)C(=O)c2ccccc21 (centres undefined) [listing 1 of 2 here],15.6 µM,23.1 µM,3.9 µM,18.9 µM,,,,
CC(C)(C)OC(=O)NCCCNC(C1=C(O)C(=O)c2ccccc2C1=O)c1cccc(O)c1 (centres undefined),,> 40 µM,> 40 µM,,> 40 µM,> 40 µM,,
CCCCCCCCCCNC(C1=C(O)C(=O)c2ccccc2C1=O)c1ccccc1O (centres undefined),,23.1 µM,12.2 µM,,32.2 µM,30.9 µM,,
CCCCNC(C1=C(O)C(=O)c2ccccc2C1=O)c1cc(Br)ccc1O (centres undefined),12.5 µM,21.4 µM,,23.9 µM,,,6.2 µM,
CCCCNC(C1=C(O)C(=O)c2ccccc2C1=O)c1ccccc1O (centres undefined) [listing 1 of 2 here],,,,,> 40 µM,> 40 µM,> 40 µM,> 40 µM
CCCCNC(C1=C(O)C(=O)c2ccccc2C1=O)c1ccccn1 (centres undefined),,9.5 µM,> 40 µM,,12.5 µM,> 40 µM,,
O=C1C(O)=C(C(NCc2ccco2)c2ccccc2O)C(=O)c2ccccc21 (centres undefined),14.4 µM,,1.1 µM,20.2 µM,,,,23.4 µM
CCCCCCCCCCNC(C1=C(O)C(=O)c2ccccc2C1=O)c1ccccn1 (centres undefined),,1.7 µM,3.8 µM,,1.7 µM,23.3 µM,,
Cc1ccc(NC(C2=C(O)C(=O)c3ccccc3C2=O)c2ccccn2)cc1 (centres undefined),,> 40 µM,> 40 µM,,> 40 µM,> 40 µM,,
O=C1C(O)=C(CNCCCCl)C(=O)c2ccccc21,,> 40 µM,> 40 µM,,> 40 µM,> 40 µM,,
CCCCCCCNC(C1=C(O)C(=O)c2ccccc2C1=O)c1ccc(Cl)cc1Cl (centres undefined),,> 40 µM,4.5 µM,,> 40 µM,> 40 µM,,
CCCCCCCNC(C1=C(O)C(=O)c2ccccc2C1=O)c1ccccc1O (centres undefined),,18.9 µM,7.7 µM,,19.7 µM,33.3 µM,,
CCCCCCCCCCNC(C1=C(O)C(=O)c2ccccc2C1=O)c1cccc(O)c1 (centres undefined),,> 40 µM,11.9 µM,,25.8 µM,31.1 µM,,
CC(C)(C)OC(=O)NCCNC(C1=C(O)C(=O)c2ccccc2C1=O)c1ccccc1 (centres undefined),,> 40 µM,> 40 µM,,> 40 µM,> 40 µM,,
O=C1C(O)=C(C(NCc2ccccc2)c2ccccn2)C(=O)c2ccccc21 (centres undefined),,1.3 µM,4.8 µM,,2.2 µM,> 40 µM,,
CCCCCCCNC(C1=C(O)C(=O)c2ccccc2C1=O)c1ccccc1 (centres undefined),,> 40 µM,> 40 µM,,> 40 µM,> 40 µM,,
O=C1C(O)=C(C(NCc2ccccc2)c2ccccc2O)C(=O)c2ccccc21 (centres undefined) [listing 2 of 2 here],,,,,14.4 µM,18.3 µM,4.6 µM,11.6 µM
CCCCNC(C1=C(O)C(=O)c2ccccc2C1=O)c1cc(C)ccc1O (centres undefined) [listing 1 of 2 here],17 µM,,,26.5 µM,,,6 µM,29.6 µM

SMILES,IC50 ([1]; hct-8),"IC50 ([2]; Homo sapiens, SF-295, 72 h)","IC50 ([3]; Homo sapiens, HL-60, 72 h)",IC50 (MDA-MB-435; mda-mb-435),"IC50 ([1]; Homo sapiens, HCT-8, 72 h)","IC50 (MDA-MB-435; Homo sapiens, MDA-MB-435, 72 h)",IC50 ([3]; hl-60),IC50 ([2]; sf-295)
O=C1C(O)=C(C(NCc2ccccc2)c2cc(Br)ccc2O)C(=O)c2ccccc21 (centres undefined),,,,,15.9 µM,> 40 µM,4.9 µM,10.7 µM
CCCCNC(C1=C(O)C(=O)c2ccccc2C1=O)c1cccc(O)c1 (centres undefined),,> 40 µM,> 40 µM,,> 40 µM,> 40 µM,,
CC(C)(C)OC(=O)NCCNC(C1=C(O)C(=O)c2ccccc2C1=O)c1ccc([N+](=O)[O-])cc1 (centres undefined),,> 40 µM,> 40 µM,,> 40 µM,> 40 µM,,
COc1ccc(NC(C2=C(O)C(=O)c3ccccc3C2=O)c2ccccn2)cc1 (centres undefined),,> 40 µM,> 40 µM,,> 40 µM,> 40 µM,,
O=C1C(O)=C(C(Nc2ccccc2)c2ccccn2)C(=O)c2ccccc21 (centres undefined),,> 40 µM,> 40 µM,,> 40 µM,> 40 µM,,
O=C1C(O)=C(C(NCc2ccccn2)c2ccccc2)C(=O)c2ccccc21 (centres undefined) [listing 1 of 2 here],14.3 µM,,,> 40 µM,,,> 40 µM,> 40 µM
CCCCCCCNC(C1=C(O)C(=O)c2ccccc2C1=O)c1ccc([N+](=O)[O-])cc1 (centres undefined),,> 40 µM,> 40 µM,,> 40 µM,> 40 µM,,
CCCCNC(C1=C(O)C(=O)c2ccccc2C1=O)c1cc(C)ccc1O (centres undefined) [listing 2 of 2 here],5.6 µM,,,11 µM,,,1.6 µM,5.5 µM
O=C1C(O)=C(C(NCCCCl)c2cc(Br)ccc2O)C(=O)c2ccccc21 (centres undefined),,28.8 µM,8.4 µM,,> 40 µM,> 40 µM,,
O=C1C(O)=C(C(NCc2ccccn2)c2ccccc2)C(=O)c2ccccc21 (centres undefined) [listing 2 of 2 here],6.3 µM,,,3.6 µM,,,5.4 µM,13.5 µM
CCCCCCCNC(C1=C(O)C(=O)c2ccccc2C1=O)c1cc(Br)ccc1O (centres undefined),,> 40 µM,> 40 µM,,> 40 µM,> 40 µM,,
CCCCNC(C1=C(O)C(=O)c2ccccc2C1=O)c1ccccc1O (centres undefined) [listing 2 of 2 here],20.5 µM,33.3 µM,,25.6 µM,,,6.5 µM,
CC(C)(C)OC(=O)NCCCNC(C1=C(O)C(=O)c2ccccc2C1=O)c1ccc([N+](=O)[O-])cc1 (centres undefined),,> 40 µM,> 40 µM,,> 40 µM,> 40 µM,,
CCCCCCCCCCNC(C1=C(O)C(=O)c2ccccc2C1=O)c1cc(Br)ccc1O (centres undefined),,> 40 µM,> 40 µM,,> 40 µM,> 40 µM,,
Cc1ccc(O)c(C(NCc2ccccc2)C2=C(O)C(=O)c3ccccc3C2=O)c1 (centres undefined),11.3 µM,8.5 µM,7.2 µM,15.8 µM,,,,
CC(C)(C)OC(=O)NCCCNC(C1=C(O)C(=O)c2ccccc2C1=O)c1ccccc1 (centres undefined),,> 40 µM,> 40 µM,,> 40 µM,> 40 µM,,
CC(C)(C)OC(=O)NCCNC(C1=C(O)C(=O)c2ccccc2C1=O)c1ccc(Cl)cc1Cl (centres undefined),,> 40 µM,> 40 µM,,> 40 µM,> 40 µM,,
O=C1C(O)=C(C(NCCCCl)c2ccc([N+](=O)[O-])cc2)C(=O)c2ccccc21 (centres undefined),,> 40 µM,> 40 µM,,> 40 µM,> 40 µM,,
